One assay deals with U937 cells. Description: Inhibition of TNF-α-induced necroptosis of U937 cells (CCK-8 assay). The format is cell-based, human. To be noted: Homo sapiens, U-937, TNF-α 20 ng/mL + BV6 2 µM + Z-VAD-FMK 20 µM, 18 h. An excerpt: Example 56: Inhibition of TNF-α-Induced Necroptosis of U937 Cells by Compounds
• 1. Experimental reagents: RPMI-1640 culture medium, fetal bovine serum, penicillin-streptomycin, TNF-α (MCE, HY-P7058), BV6 (MCE, HY-16701), Z-VAD-FMK (MCE, HY-16658B), and CCK-8 (Dalian Meilun Biotech Co., Ltd., MA0218). • 2. Experimental instruments: medical low-temperature freezer (Thermo Fisher scientific, 902-ULTS), electrically heated thermostatic water bath (Shanghai Bluepard Instruments Co., Ltd., CD-420), low-speed centrifuge (ANHUI USTC Zonkia Scientific Instruments Co., Ltd, SC-3616), carbon dioxide incubator (Shanghai Bluepard Instruments Co., Ltd., BPN-150CH(UV)), inverted microscope (Olympus, CKX53), multi-functional microplate reader (Thermo Tecan, SPARK), class-II biosafety cabinet (AIRTECH, BSC-1304IIA2), and desktop cell counter (Thermo Fisher Scientific, Countess II). • 3. Cell culturing: U937 cells (human histiocytic lymphoma cells) were cultured in an RPMI-1640 culture solution containing 10% fetal bovine serum and 1% penicillin-streptomycin solution in a 5% CO2 incubator at 37 °C and a saturated humidity. The cell culture flask was vertically placed in the incubator. A T25 culture flask was used as an example, the culture solution in the flask was 6-8 mL, and culture medium changes and cell passaging were performed 3-4 times a week. • 4. […] The culture medium was taken out from the freezer and transferred to the water bath for pre-heating. An appropriate amount of culture medium was then taken for use. • (2) The cell suspension was transferred to a 15 mL sterile centrifuge tube and centrifuged at 850 rpm for 4 min to collect U937 cells. • (3) The supernatant was carefully discarded, and an appropriate amount of culture medium was added. The mixture was gently pipetted using a pipette to homogenize the cells and thus prepare a single-cell suspension, and the cells were counted. • (4) The cells were diluted to 4 × 10^5/mL and seeded into a 96-well plate at 90 µL/well, such that the cell density in the 96-well plate was 3.6 × 10 ^4 cells/well. The cells were incubated in a 5% CO 2 incubator at 37 °C and a saturated humidity for 6 h, followed by the addition of compounds. • 4.2 Dilution and addition of compounds: • (1) TNF-α was dissolved in PBS to obtain a 100 µg/mL stock solution and aliquoted; Z-VAD-FMK was dissolved in DMSO to obtain a 10 mM stock solution and aliquoted; BV6 was dissolved in DMSO to obtain a 10 mM stock solution and aliquoted; GSK2982772 was dissolved in DMSO to obtain a 10 mM stock solution and aliquoted. One aliquot of each stock solution was stored at -20 °C for immediate use, while the remaining aliquots were stored at - 80 °C and used within their shelf life. • (2) RPMI-1640 culture medium containing TNF-α, BV6, and Z-VAD-FMK was prepared (5 µL/per well), such that the final concentrations of TNF-α, BV6, and Z-VAD-FMK were 20 ng/mL, 2 µM, and 20 µM, respectively. • (3) Each target compound was three-fold diluted with a culture medium to 8 concentration gradients, with each concentration set in duplicate (5 µL/well). The final concentrations of each target compound were 1000.00/333.33/111.11/37.04/12.35/4.12/1.37/0.46 nM. • (4) The 96-well plate containing 90 µL of cell suspension was taken out from an incubator, and a positive control group, test compound groups, and a DMSO (5‰) control group were set. 5 µL of RPMI-1640 culture solution containing TNF-α, BV6, and Z-VAD-FMK and 5 µL of culture solution containing the test compound were added to the positive control group and the test compound groups. After compound addition, the mixtures were cultured for 18 h, followed by the CCK-8 assay. • (5) The 96-well plate was taken out, and the CCK-8 reagent was carefully added at 10 µL/well. The mixtures were incubated at 37 °C for 2-4 h, and the absorbance value was measured at a wavelength of 450 nm. • 5. Evaluation of inhibitory activity of compounds on TNF-α-induced necroptosis of U937 [formula] […]
Background: Tetrazolium assays rely on reduction of a dye to a coloured formazan, in cell work by metabolically active cells.

The next assay has as its system HT-29 cells. Description: Inhibition of TNF-α-induced necroptosis of HT-29 cells (SRB method). The format is cell-based, human. To be noted: Homo sapiens, HT-29, TNF-α 20 ng/mL + BV6 2 µM + Z-VAD-FMK 20 µM, 18 h. From the text: Example 57: Inhibition of TNF-α-Induced Necroptosis of HT-29 Cells by Compounds
• 1. Experimental reagents: McCOY's 5A culture medium, fetal bovine serum, penicillin-streptomycin, trypsin, PBS, TNF-α (MCE, HY-P7058), BV6 (MCE, HY-16701), Z-VAD-FMK (MCE, HY-16658B), SRB kit (Shanghai BestBio Biotechnology Co., Ltd., BB-4208-500T). • 2. Experimental instruments: medical low-temperature freezer (Thermo Fisher scientific, 902-ULTS), electrically heated thermostatic water bath (Shanghai Bluepard Instruments Co., Ltd., CD-420), low-speed centrifuge (ANHUI USTC Zonkia Scientific Instruments Co., Ltd, SC-3616), carbon dioxide incubator (Shanghai Bluepard Instruments Co., Ltd., BPN-150CH(UV)), inverted microscope (Olympus, CKX53), multi-functional microplate reader (Thermo Tecan, SPARK), class-II biosafety cabinet (AIRTECH, BSC-1304IIA2), and desktop cell counter (Thermo Fisher Scientific, Countess II). • 3. Cell culturing: HT-29 cells (human colon cancer cells) were cultured in a McCOY's 5A culture solution containing 10% fetal bovine serum and 1% penicillin-streptomycin solution in a 5% CO 2 at 37 °C and a saturated humidity, and culture medium changes and cell passaging were performed 3-4 times a week. • 4. […] The culture medium, trypsin, etc., were taken out from the freezer and transferred to the water bath for pre-heating. An appropriate amount of these substances was then taken for use. • (2) The old culture medium in the flask was aspirated using a sterile pipette and discarded, and the cells were washed 3 times with PBS. 1 mL of trypsin (25 cm^2 cell culture flask) was added into the flask, and the flask was gently shaken to allow the trypsin to cover all the cell surfaces. Digestion was performed in an incubator at 37 °C. After 2 min of digestion, the flask was placed under a microscope for observation. […] The mixture was gently pipetted using a pipette to homogenize the cells and thus prepare a single-cell suspension, and the cells were counted. • (5) The cells were diluted to 3 × 10^5/mL and seeded into a 96-well plate at 100 µL/well, such that there were 3 × 10^4 cells per well in the 96-well plate. The cells were incubated in a 5% CO2 incubator at 37 °C and a saturated humidity for 24 h, followed by the addition of compounds. • 4.2 Dilution and addition of compounds: • (1) TNF-α was dissolved in PBS to obtain a 100 µg/mL stock solution and aliquoted; Z-VAD-FMK was dissolved in DMSO to obtain a 10 mM stock solution and aliquoted; BV6 was dissolved in DMSO to obtain a 10 mM stock solution and aliquoted; GSK2982772 was dissolved in DMSO to obtain a 10 mM stock solution and aliquoted. One aliquot of each stock solution was stored at -20 °C for immediate use, while the remaining aliquots were stored at - 80 °C and used within their shelf life. • (2) McCOY's 5A culture solution containing TNF-α, BV6, and Z-VAD-FMK was prepared. For the positive control group and the test compound groups, the McCOY's 5A culture solution was added at 90 µL/well, and 10 µL of the culture medium containing the test compound was also added, thus making the final concentrations of TNF-α, BV6, and Z-VAD-FMK be 20 ng/mL, 2 µM, and 20 µM, respectively. For the DMSO (5‰) control group, 90 µL of the McCOY's 5A complete culture solution was added, and then 10 µL of DMSO was added, thus making the final concentration 5‰. • (3) Each target compound was three-fold diluted with a culture medium to 8 concentration gradients, with each concentration set in duplicate (10 µL/well). The final concentrations of each target compound were 1000.00/333.33/111.11/37.04/12.35/4.12/1.37/0.46 nM. • (4) The 96-well plate cultured for 24 h was taken out from the incubator, and the culture medium in the 96-well plate was carefully aspirated and discarded. A positive control group, test compound groups, and a DMSO (5‰) control group were set, and 10 µL of the corresponding compound was added to each group. […]
Background: In SRB staining, fixed cells bind dye roughly in proportion to their protein.

Where only a bound is given, the exact number is not on record here.

In general, EC50 refers to the concentration at which the effect is half-maximal. Consider `O=C(NC1CCc2cc(C#Cc3cnn(C4COC4)c3)cc3c2N(CC3)C1=O)c1ncn(Cc2c(F)cccc2F)n1` (stereo not shown) [III-29, 1-(2,6-difluorobenzyl)-N-(9-((1-(oxetan-3-yl)-1H-pyrazol-4-yl)ethynyl)-4-oxo-1,2,3,4,6,7-hexahydroazepino[3,2,1-hi]indol-3-yl)-1H-1,2,4-triazole-3-carboxamide], for which the concentration for a half-maximal effect (EC50) in the assay on U937 cells and in the assay with HT-29 cells was < 5 nM each time.
Regarding `Cn1cc(C#Cc2cc3c4c(c2)CCN4C(=O)C(NC(=O)c2ncn(Cc4ccc(F)cc4)n2)CC3)cn1` (stereo not shown) [III-8, 1-(4-fluorobenzyl)-N-(9-((1-methyl-1H-pyrazol-4-yl)ethynyl)-4-oxo-1,2,3,4,6,7-hexahydroazepino[3,2,1-hi]indol-3-yl)-1H-1,2,4-triazole-3-carboxamide], the EC50 with U937 cells lay in the range of 5 to 10 nM; in the assay on HT-29 cells it was 10 to 100 nM.
The like results for `CC(C)(C)OC(=O)N1CCC(C#Cc2cc3c4c(c2)CCN4C(=O)C(NC(=O)c2ncn(Cc4c(F)cccc4F)n2)CC3)CC1` (stereo not shown) [III-16, tert-butyl 4-((3-(1-(2,6-difluorobenzyl)-1H-1,2,4-triazole-3-carboxamido)-4-oxo-1,2,3,4,6,7-hexahydroazepino[3,2,1-hi]indol-9-yl)ethynyl)piperidine-1-carboxylate] were, in that order, < 5 nM and 10 to 100 nM.
Consider `Cn1cc(C#Cc2cc3c4c(c2)CCN4C(=O)C(NC(=O)c2ncn(Cc4ccc(F)cc4F)n2)CC3)cn1` (stereo not shown) [III-9, 1-(2,4-difluorobenzyl)-N-(9-((1-methyl-1H-pyrazol-4-yl)ethynyl)-4-oxo-1,2,3,4,6,7-hexahydroazepino[3,2,1-hi]indol-3-yl)-1H-1,2,4-triazole-3-carboxamide], for which the EC50 in the assay on U937 cells and in the assay on HT-29 cells was < 5 nM throughout.
With `Cn1cc(C#Cc2cc3c4c(c2)CCN4C(=O)C(NC(=O)c2ncn(Cc4cc(F)cc(F)c4)n2)CC3)cn1` (stereo not shown) [III-11, 1-(3,5-difluorobenzyl)-N-(9-((1-methyl-1H-pyrazol-4-yl)ethynyl)-4-oxo-1,2,3,4,6,7-hexahydroazepino[3,2,1-hi]indol-3-yl)-1H-1,2,4-triazole-3-carboxamide], the EC50 in the assay on U937 cells and in the assay with HT-29 cells was < 5 nM each time.
As to `Cn1cc(C#Cc2cc3c4c(c2)CCN4C(=O)C(NC(=O)c2cccc(Oc4ccccc4)n2)CC3)cn1` (stereo not shown) [Compound V-1, N-(9-((1-methyl-1H-pyrazol-4-yl)ethynyl)-4-oxo-1,2,3,4,6,7-hexahydroazepino[3,2,1-hi]indol-3-yl)-6-phenoxypicolinamide], the half-maximal effective concentration (EC50) with U937 cells and in the assay on HT-29 cells was > 200 nM in each case.
Take `O=C(NC1CCc2cc(C#Cc3ccncc3)cc3c2N(CC3)C1=O)c1nnc(Cc2ccc(Cl)cc2)[nH]1` (stereo not shown) [Compound I-9, 5-(4-chlorobenzyl)-N-(4-oxo-9-(pyridin-4-ylethynyl)-1,2,3,4,6,7-hexahydroazepino[3,2,1-hi]indol-3-yl)-4H-1,2,4-triazole-3-carboxamide]: the half-maximal effective concentration (EC50) in the assay with U937 cells and in the assay on HT-29 cells was > 200 nM each time.
Turning to `O=C(NC1CCc2cc(C#Cc3ccccn3)cc3c2N(CC3)C1=O)c1nnc(Cc2ccccc2)[nH]1` (stereo not shown) [Compound I-2, 5-benzyl-N-(4-oxo-9-(pyridin-2-ylethynyl)-1,2,3,4,6,7-hexahydroazepino[3,2,1-hi]indol-3-yl)-4H-1,2,4-triazole-3-carboxamide], the concentration for a half-maximal effect (EC50) lay within 100 to 200 nM with U937 cells and 10 to 100 nM in the assay on HT-29 cells.
As for `O=C(NC1CCc2ccc(C#Cc3ccccn3)c3c2N(CC3)C1=O)c1nnc(Cc2ccccc2)[nH]1` (stereo not shown) [II-1, 5-benzyl-N-(4-oxo-8-(pyridin-2-ylethynyl)-1,2,3,4,6,7-hexahydroazepino[3,2,1-hi]indol-3-yl)-4H-1,2,4-triazole-3-carboxamide], the EC50 in the assay with U937 cells and in the assay with HT-29 cells was 10 to 100 nM throughout.
On to `O=C(NC1CCc2cc(C#Cc3cnn(C(F)F)c3)cc3c2N(CC3)C1=O)c1ncn(Cc2ccc(F)cc2F)n1` (stereo not shown) [III-20, 1-(2,4-difluorobenzyl)-N-(9-((1-(difluoromethyl)-1H-pyrazol-4-yl)ethynyl)-4-oxo-1,2,3,4,6,7-hexahydroazepino[3,2,1-hi]indol-3-yl)-1H-1,2,4-triazole-3-carboxamide], for which the EC50 in the assay with U937 cells and in the assay with HT-29 cells was 5 to 10 nM in each case.
On to `O=C(NC1CCc2cc(C#Cc3ccncc3)cc3c2N(CC3)C1=O)c1ncn(Cc2ccccc2)n1` (stereo not shown) [III-3, 1-benzyl-N-(4-oxo-9-(pyridin-4-ylethynyl)-1,2,3,4,6,7-hexahydroazepino[3,2,1-hi]indol-3-yl)-1H-1,2,4-triazole-3-carboxamide], for which the EC50 in the assay with U937 cells and in the assay on HT-29 cells was 10 to 100 nM throughout.

(Values after patent EP4772510A2, “BENZAZEPINONE COMPOUND AND USE THEREOF” (HANGZHOU BIO-SINCERITY PHARMA-TECHCO., LTD., priority 2023, dated 2025).)
